Data reported in publication PMC8251769, “Phosphonate as a Stable Zinc‐Binding Group for “Pathoblocker” Inhibitors of Clostridial Collagenase H (ColH)” (Chemmedchem, 2021).

The molecules below were run against T1, MMP-14 (Homo sapiens, UniProt P50281) (assay: SensoLyte […] generic MMP activity kit). Details: read-out: Inhibition [%] at 100 μM compound^[a] / 26 (phosphonate).
T1 construct: gene MMP14; catalytic domain, AnaSpec
Assay type: biochemical

In the case of CC(=O)c1ccc(NC(=O)CP(=O)(O)O)cc1 [compound 26, Disodium (2-((4-acetylphenyl)amino)-2-oxoethyl)phosphonate], the inhibition at 100 µM is reported as 47 ± 13%.

These molecules were tested against T2, MMP-8 (Homo sapiens, UniProt P22894) (assay: SensoLyte […] generic MMP activity kit). Details: read-out: Inhibition [%] at 100 μM compound^[a] / 26 (phosphonate).
T2 construct: gene MMP8; catalytic domain, AnaSpec
Assay type: biochemical

T2 sequence (P22894 100-262 limits assumed): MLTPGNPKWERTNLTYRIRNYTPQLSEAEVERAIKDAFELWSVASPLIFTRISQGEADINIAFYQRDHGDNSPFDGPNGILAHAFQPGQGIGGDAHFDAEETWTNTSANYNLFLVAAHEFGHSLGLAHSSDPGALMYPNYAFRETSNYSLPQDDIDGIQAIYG

CC(=O)c1ccc(NC(=O)CP(=O)(O)O)cc1 [compound 26, Disodium (2-((4-acetylphenyl)amino)-2-oxoethyl)phosphonate] was tested, and the inhibition at 100 µM was 36 ± 1%.

The molecules below were run against T3, HDAC-8 (Homo sapiens, UniProt Q9BY41) (assay: fluorescence inhibitor screening kit). Details: read-out: Inhibition [%] at 100 μM compound^[a] / 5 a (thiol).
T3 construct: gene HDAC8
T3 sequence (Q9BY41 1-377): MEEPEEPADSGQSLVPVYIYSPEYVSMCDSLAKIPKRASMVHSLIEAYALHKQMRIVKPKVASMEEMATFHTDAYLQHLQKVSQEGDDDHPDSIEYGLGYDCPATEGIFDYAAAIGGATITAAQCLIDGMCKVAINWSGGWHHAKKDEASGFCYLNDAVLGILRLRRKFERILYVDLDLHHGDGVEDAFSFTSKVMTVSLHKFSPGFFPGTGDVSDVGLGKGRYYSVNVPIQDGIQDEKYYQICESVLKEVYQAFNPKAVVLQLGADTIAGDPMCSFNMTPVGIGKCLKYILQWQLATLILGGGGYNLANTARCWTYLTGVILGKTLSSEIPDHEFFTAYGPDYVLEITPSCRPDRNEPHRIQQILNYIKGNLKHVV
Assay type: biochemical
Excerpt: fluorescence inhibitor screening kit on HDAC-8

For CC(=O)c1ccc(NC(=O)CS)cc1 [5a, thiol 5 a], the inhibition at 100 µM was 48 ± 5%.

Each molecule was assayed against T4, HDAC-3 (Homo sapiens, UniProt O15379) (assay: fluorescence inhibitor screening kit). Details: read-out: Inhibition [%] at 100 μM compound^[a] / 5 a (thiol).
T4 construct: gene HDAC3
Assay type: biochemical
Excerpt: fluorescence inhibitor screening kit on HDAC-3

T4 sequence (O15379 whole entry): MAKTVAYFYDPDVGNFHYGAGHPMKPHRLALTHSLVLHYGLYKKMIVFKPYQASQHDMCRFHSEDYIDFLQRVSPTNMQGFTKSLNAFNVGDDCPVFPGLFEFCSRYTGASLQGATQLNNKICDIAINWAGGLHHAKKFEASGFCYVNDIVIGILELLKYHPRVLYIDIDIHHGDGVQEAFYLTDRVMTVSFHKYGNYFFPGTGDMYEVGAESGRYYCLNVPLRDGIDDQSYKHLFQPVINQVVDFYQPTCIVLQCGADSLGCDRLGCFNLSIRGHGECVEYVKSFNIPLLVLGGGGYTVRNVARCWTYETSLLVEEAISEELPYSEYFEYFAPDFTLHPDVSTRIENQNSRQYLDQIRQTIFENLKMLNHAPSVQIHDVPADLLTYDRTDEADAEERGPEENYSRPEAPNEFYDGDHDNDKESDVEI

CC(=O)c1ccc(NC(=O)CS)cc1 [5a, thiol 5 a] was tested, and the inhibition at 100 µM was 51 ± 7%.

What follows are molecules tested against ColH-PD (peptidase domain of collagenase H) (Hathewaya histolytica, UniProt Q46085) (assay: biochemical). Details: not given.
ColH-PD (peptidase domain of collagenase H), sequence (Q46085 331-721 limits assumed): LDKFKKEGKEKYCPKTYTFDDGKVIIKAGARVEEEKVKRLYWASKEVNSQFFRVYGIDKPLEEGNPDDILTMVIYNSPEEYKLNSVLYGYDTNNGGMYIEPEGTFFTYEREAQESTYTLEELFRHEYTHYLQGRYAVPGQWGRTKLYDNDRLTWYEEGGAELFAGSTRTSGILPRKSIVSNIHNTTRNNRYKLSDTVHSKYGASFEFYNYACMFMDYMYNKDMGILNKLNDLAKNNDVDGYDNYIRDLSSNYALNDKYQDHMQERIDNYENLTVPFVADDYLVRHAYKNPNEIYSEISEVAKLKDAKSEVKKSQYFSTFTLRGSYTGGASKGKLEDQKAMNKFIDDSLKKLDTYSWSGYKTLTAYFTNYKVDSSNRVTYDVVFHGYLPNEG

O=C(O)CC(=O)Nc1ccccc1 [compound 9, 3-Oxo-3-(phenylamino)propanoic acid] and NC(=O)CC(=O)Nc1ccccc1 [compound 8, N^1-Phenylmalonamide] cannot be ordered by IC50: > 500 µM for the first, > 500 µM for the second.

CC(=O)c1ccc(NC(=O)Cn2cnnn2)cc1 [compound 17, N-(4-Acetylphenyl)-2-(1H-tetrazol-1-yl)acetamide] and CC(=O)c1ccc(NC(=O)Cn2ccnn2)cc1 [compound 14, N-(4-Acetylphenyl)-2-(1H-1,2,3-triazol-1-yl)acetamide] cannot be ordered by IC50: > 500 µM for the first, > 500 µM for the second.

Compared with CC(=O)c1ccc(NC(=O)Cc2nn[nH]n2)cc1 [compound 19, N-(4-Acetylphenyl)-2-(2H-tetrazol-5-yl)acetamide], CC(=O)c1ccc(NC(=O)Cc2c[nH]cn2)cc1 [compound 20, N-(4-Acetylphenyl)-2-(1H-imidazol-4-yl)acetamide] is higher in IC50: 22 ± 1 µM for the first, > 500 µM for the second.

First: O=C(O)CCC(=O)Nc1ccccc1 [compound 10, 4-Oxo-4-(phenylamino)butanoic acid]
Second: O=C(CC(=O)Nc1ccccc1)NO [compound 11, N^1-Hydroxy-N^3-phenylmalonamide]
The IC50 of the first is higher: > 500 µM for the first, ~500 µM for the second.

Compared with CC(=O)c1ccc(NC(=O)Cn2cncn2)cc1 [compound 16, N-(4-Acetylphenyl)-2-(1H-1,2,4-triazol-1-yl)acetamide], CC(=O)c1ccc(NC(=O)Cn2ccnc2)cc1 [compound 15, N-(4-Acetylphenyl)-2-(1H-imidazol-1-yl)acetamide] is lower in IC50: > 500 µM for the first, 448 ± 33 µM for the second.

CCOP(C)(=O)CC(=O)Nc1ccc(C(C)=O)cc1 (centres unmarked) [compound 27, Ethyl (2-((4-acetylphenyl)amino)-2-oxoethyl)(methyl)phosphinate] and CC(=O)c1ccc(NC(=O)CP(C)(=O)O)cc1 [compound 25, Sodium (2-((4-acetylphenyl)amino)-2-oxoethyl)(methyl)phosphinate] cannot be ordered by IC50: > 500 µM for the first, > 500 µM for the second.

CC(=O)c1ccc(NC(=O)CC#N)cc1 [compound 23, N-(4-Acetylphenyl)-2-cyanoacetamide] and CC(=O)c1ccc(NC(=O)CS(=O)(=O)O)cc1 [compound 24, Sodium 2-((4-acetylphenyl)amino)-2-oxoethane-1-sulfonate] cannot be ordered by IC50: > 500 µM for the first, > 500 µM for the second.

CC(=O)c1ccc(NC(=O)Cn2ncnn2)cc1 [compound 18, N-(4-acetylphenyl)-2-(2H-tetrazol-2-yl)acetamide] was tested, and the IC50 was > 500 µM.

Same assay, conditions: read-out: IC50

Molecule CC(=O)c1ccc(NC(=O)CP(=O)(O)O)cc1 [compound 26, Disodium (2-((4-acetylphenyl)amino)-2-oxoethyl)phosphonate] has an IC50 of 7 ± 1 µM.
